Results taken from patent publication US12090204B2, “Photodynamic therapy compositions and methods of use thereof” (Pinnacle Biologics, Inc., priority 2020, dated 2024).
“And” between values parts separate entries of the source, which are not always exact repeats. Equal entries are not always repeated.

Experiments:
S. Mutans (+) = assay: porfimer sodium aPDT, planktonic culture; format: cell-based, Streptococcus Mutans; conditions: 630 nm, 200 J/cm2, porfimer sodium 125 μg/mL
Description: Bacteria were routinely cultured using tryptic soy broth or agar at 37° C. in a 5% CO2 incubator. Bacteria were isolated and suspended with 0.9% NaCl to an Optical Density (OD) of 0.1 taken at 630 nm, to generate the inoculum used for either planktonic or biofilm assays.
Experiments using planktonic cultures were carried out using M. catarrhalis, as a standard for further comparisons and to determine the effective drug concentration, porfimer sodium incubation time and light dose parameters which would provide an effective cell kill at the level of 5-7 logs. Once determined the experiments were repeated for all other bacterial strains examined.
The colony forming units (CFU) per mL of the starting inoculum for every experiment was determined by dilution plating. […]
Bacteria were exposed to 630 nm laser light via a fiber optic with a lens affixed to the distal end to provide a uniform diverging light field. […] Power output of the laser was measured using a UDT/Gamma Scientific 371 optical power meter and an integrating sphere. […]
Biofilms were formed on glass coupons in culture dishes containing a bacterial inoculum for 48 hours under conditions specific to the strain. […] Power output of the laser was measured using a UDT/Gamma Scientific 371 optical power meter and an integrating sphere. […]

[1] = tested on: methicillin-resistant Staphylococcus aureus (MRSA), Staphylococcus aureus ATCC BAA 1768; assay: partial thickness wound model, microbial load in wound swabs (Example 4); format: in vivo, Yorkshire pig; conditions: for overall decrease of mean microbial load in wound swabs over the course of treatment (SD1 to SD3): untreated Group 2: 20-fold; for WOUND SWABS (CFU/mL) 24 hr. Post-Treat 2 / WOUND SWABS (CFU/mL) Immediately Post-Treat 2 / WOUND SWABS (CFU/mL) Pre-treat 2 / WOUND SWABS (CFU/mL) Pre-Treat 1: individual wounds; for WOUND SWABS (CFU/mL) Pre-Treat 1: 1.0 mg/mL
Description: Bacteria strains were obtained from ATCC (Manassas, VA). Bacteria were propagated from glycerol stock store at −80° C. A stab of the glycerol stock was used to inoculate 5 mL of trypticase soy broth. The cultures were incubated overnight at 37° C. with shaking at 250 rpm. The following day, a portion of overnight culture was used to prepare a streak plate onto an Oxacillin screen plate which was incubated overnight at 37° C. and single colony isolates of freshly plated bacteria were used to prepare bacterial inoculum. The morning of wounding an infection, a portion of overnight culture was used to inoculate 50 mL of trypticase soy broth and the newly inoculated media was incubated at 37° C. with shaking at 250 rpm until log phase growth was reached. The bacteria were pelleted by centrifugation at 4,000 rpm at 4° C. for 10 minutes in a Sorval tabletop centrifuge. The culture supernatant was discarded, and the bacterial pellets were suspended in a volume of sterile PBS to yield a concentration of 2×10^7 CFU/mL.
Wounds were swabbed with a sterile cotton tipped applicator in a serpentine motion starting at the upper left-hand margin of the wound and ending at the bottom right wound margin. A dry sterile cotton tipped applicator was used for all wounds. The swabs were placed into 14 mL falcon tubes containing 1 mL of sterile PBS. The tubes were vigorously vortexed and serial 10-fold dilutions of the PBS in the tubes containing the swabs were prepared. One hundred microliters of select dilutions for wound groups were plated onto agar plates. The plates were incubated at 35-37° C. and colonies enumerated manually. The data are reported as CFU/swab normalized to the volume of PBS in which the swabs were placed.
This study evaluated the ability of porfimer sodium to reduce/eliminate microbial colonization and biofilm from surgical sites in a partial thickness would healing model. The study was conducted in a single female Yorkshire pig over the course of five days. A dermatome was used to create 20 partial thickness wounds. Sixteen of the wounds were infected with methicillin-resistant Staphylococcus aureus (MRSA), and four were designated as uninfected controls. The wounds were bandaged and the bacterial biofilm allowed to develop for 48 hours.
Designated infected wounds were subjected to two courses of treatment with the test article at a periodicity of 24 hours. Article dose concentration of 1.0 mg/mL of porfimer sodium was prepared as described in Example 3, and used immediately, with the exception of two wounds (L6 and L7) where the test article (reconstituted porfimer sodium) was mixed 1:1 with NeilMed NasalGel.
Treatments consisted of application of the test article followed by photoactivation with one or two intensities of light, 150 J/cm^2 or 200 J/cm^2 (Table 3). Wounds were evaluated for microbial load prior to each course of treatment, immediately following the final treatment and 24 hours following the final treatment. Tissue specimens from infected and non-infected wounds were harvested for histology of biofilm formation at each treatment time point. Tissue specimens from treated wounds were harvested 24 hours following the final treatments for histology.

[2] = Group 4 (200 J/cm^2), N 3, without wounds L6, R5, R9

For porfimer sodium, the Rate of kill (S. Mutans (+)) was greater than 7Log, the “Mean microbial load, Posttreat 2 (swab)” value ([1]; Group 3 (150 J/cm^2), N 6) was 5.33E+03 CFU/swab and the “Mean microbial load, Pretreat 1 (swab)” value ([1]; Group 3 (150 J/cm^2), N 6) was 9.91E+05 CFU/swab. For the same substance, the “Mean microbial load, Pretreat 2 (swab)” value ([1]; Group 3 (150 J/cm^2), N 6) was 1.90E+05 CFU/swab, the “additional decrease of mean microbial load in wound swabs following Treatment 2” value ([1]; Group 3, 150 J/cm^2) was 36 fold and the “decrease of mean microbial load in wound swabs following treatment 1 (SD1 to SD2)” value ([1]; Group 3, 150 J/cm^2) was 5.2 fold. For the same substance, the “overall decrease of mean microbial load in wound swabs over the course of treatment (SD1 to SD3)” value ([1]; Group 3, 150 J/cm^2) was 186 fold, the “WOUND SWABS (CFU/mL) 24 hr. Post-Treat 2” value ([1]; Group 3 = 150 J/cm2 treatment) was 1.14E+04 CFU/mL and 1.17E+04 CFU/mL and 3.50E+02 CFU/mL and 2.65E+03 CFU/mL and 4.30E+03 CFU/mL and the “WOUND SWABS (CFU/mL) Immediately Post-Treat 2” value ([1]; Group 3 = 150 J/cm2 treatment) was 1.92E+05 CFU/mL and 6.16E+03 CFU/mL. The “WOUND SWABS (CFU/mL) Pre-treat 2” value ([1]; Group 3 = 150 J/cm2 treatment) was 8.80E+04 CFU/mL and 6.60E+05 CFU/mL and 2.74E+03 CFU/mL and 4.20E+04 CFU/mL and 3.45E+05 CFU/mL, the “WOUND SWABS (CFU/mL) Pre-Treat 1” value ([1]; Group 3 = 150 J/cm2 treatment) was 6.30E+05 CFU/mL and 3.03E+06 CFU/mL and 2.88E+05 CFU/mL and 4.00E+03 CFU/mL and 5.40E+04 CFU/mL and the “Mean microbial load, Posttreat 2 (swab)” value [1, 2] was 1.16E+03 CFU/swab. For the same substance, the “Mean microbial load, Pretreat 1 (swab)” value [1, 2] was 8.53E+05 CFU/swab, the “Mean microbial load, Pretreat 2 (swab)” value [1, 2] was 5.11E+05 CFU/swab and the “additional decrease of mean microbial load in wound swabs following Treatment 2” value ([1]; Group 4, 200 J/cm^2) was 250 fold. The “decrease of mean microbial load in wound swabs following treatment 1 (SD1 to SD2)” value ([1]; Group 4, 200 J/cm^2) was 1.7 fold, the “overall decrease of mean microbial load in wound swabs over the course of treatment (SD1 to SD3)” value ([1]; Group 4, 200 J/cm^2) was 735 fold and the “WOUND SWABS (CFU/mL) 24 hr. Post-Treat 2” value ([1]; Group 4 = 200 J/cm2 treatment) was 1.55E+03 CFU/mL and 1.79E+02 CFU/mL and 1.75E+03 CFU/mL and 3.15E+03 CFU/mL and 2.31E+02 CFU/mL. For the same substance, the “WOUND SWABS (CFU/mL) Immediately Post-Treat 2” value ([1]; Group 4 = 200 J/cm2 treatment) was 4.20E+04 CFU/mL and 2.80E+04 CFU/mL, the “WOUND SWABS (CFU/mL) Pre-treat 2” value ([1]; Group 4 = 200 J/cm2 treatment) was 1.40E+04 CFU/mL and 2.00E+04 CFU/mL and 1.50E+06 CFU/mL and 1.44E+06 CFU/mL and 7.60E+00 CFU/mL and the “WOUND SWABS (CFU/mL) Pre-Treat 1” value ([1]; Group 4 = 200 J/cm2 treatment) was 2.42E+05 CFU/mL and 2.60E+04 CFU/mL and 2.29E+06 CFU/mL and 0.00E+00 CFU/mL (2×). For the same substance, the “consistency of results when applied directly to infected wounds” value ([1]; porfimer sodium mixed in saline) was “inconsistency in the results”.
